Tests used:
Assay type in all cases: in vivo
[1] = system: rat; experiment: Cataleptic effects in rat, procedure based on Tedeschi et al.; conditions: for cataleptic effect (NSE = no significant cataleptic effect in doses up to indicated amount): rat, fumarate salts, expressed as free base
Text: (§1) The procedure used for determining cataleptic effects of the fumarate salts was based on that of Tedeschi et al., Arch. Int. Pharmacodyn.

[2] = system: dog; experiment: Anti-emetic activity in dogs, modified anti-apomorphine method; conditions: fumarate salts; for ED50: Canis lupus familiaris, sc, expressed as free base, read-out: ED50 (95% Confidence Limits), anti-apomorphine
Description: The anti-emetic properties of the fumarate salts were established in dogs using a modification of the anti-apomorphine methods of Chen and Ensor, J. Pharmac. Exp. Ther. 98, 245-250 (1950) and of Leonard et al., J. Pharmac. Exp. Ther. 154, 339-345 (1966) and the ED50 was calculated by the method of Goldstein (Biostatistics, An Introductory Text, pg. 156-161, The MacMillan Co., N. Y., 1964).

[3] = Cataleptic effects in rat, procedure based on Tedeschi et al.; conditions: in vivo; rat, IP; fumarate salts, expressed as free base; read-out: ED50, cataleptic effect
Text: as §1

SMILES | cataleptic properties ([1]; general statement) | cataleptic effect (NSE = no significant cataleptic effect in doses up to indicated amount) ([1]; IP) | cataleptic effect (NSE = no significant cataleptic effect in doses up to indicated amount) ([1]; PO) | ED50 [2] [mg/kg] | anti-apomorphine activity (words in the ED50 column) ([2]; s.c.) | ED50 [3] [mg/kg]
CN(C(=O)c1ccc(N)cc1)C1CCN(C2CCCCC2)C1 (racemic) [± racemate, 4-amino-N-(1-cyclohexyl-3-pyrrolidinyl)-N-methylbenzamide] | notable absence of cataleptic properties | NSE to 100 | NSE to 200 | 0.25 |  | 
CN(C(=O)c1ccc(N)cc1)C1CCN(C2CCCCC2)C1 (single isomer, unassigned; (+)) [(+)-isomer, (+)-4-amino-N-(1-cyclohexyl-3-pyrrolidinyl)-N-methylbenzamide] |  | NSE to 100 | NSE to 200 |  | no significant | 
CN(C(=O)c1ccc(N)cc1)C1CCN(C2CCCCC2)C1 (single isomer, unassigned; (-)) [(-)-isomer, (-)-4-amino-N-(1-cyclohexyl-3-pyrrolidinyl)-N-methylbenzamide] |  |  |  | 0.09 |  | > 100

— patent publication US4282243A, “Optical isomers of 4-amino-N-(1-cyclohexyl-3-pyrrolidinyl)-N-methylbenzamide” (A. H. Robins Company, Inc., priority 1980, dated 1981)
